Data set [1] deals with Influenza A virus. Nature of the data set: Antiviral activity against influenza A virus infected in human A549 cells assessed as inhibition of MAVS expression by qRT-PCR analysis. It counts as functional, organism-based.
The subject of data set [2] is Influenza A virus. Nature of the data set: In vivo antiviral activity against influenza A virus infected in BALB/c mouse assessed as reduction in IAV-M2 mRNA level in lung at 25 to 100 mg/kg measured after 6 dpi. In kind it is functional, organism-based. The following applies: dose 25-100 mg/kg.
Data set [3] relates to Influenza A virus. Nature of the data set: Antiviral activity against influenza A virus infected in human A549 cells assessed as inhibition of IRF3 expression by qRT-PCR analysis. In kind it is functional, organism-based. On the technique in general: Real-time PCR tracks product formation cycle by cycle.
For data set [4], the system named is Influenza A virus. Nature of the data set: Antiviral activity against influenza A virus H1N1 infected in MDCK cells assessed as decrease in virus infection-induced cytopathic effect. In kind it is functional, organism-based. On the technique in general: Damage to the host cells serves as the signal in cytopathic effect assays.
The test system of data set [5] is Influenza A virus. Nature of the data set: Antiviral activity against influenza A virus infected in human A549 cells assessed as inhibition of IL-13 expression by qRT-PCR analysis. In kind it is functional, organism-based.
The subject of data set [6] is Influenza A virus. As to the kind of experiment: Antiviral activity against influenza A virus H1NI (A/Weiss/43) infected in MDCK cells assessed as reduction in IAV-NP mRNA by qRT-PCR assay. In kind it is functional, organism-based.
For data set [7], the system named is Influenza A virus. Nature of the data set: Antiviral activity against influenza A virus infected in A549 cells assessed as decrease in IAV-NP mRNA level measured after 1 to 3 days of viral infection. It counts as functional, organism-based. The following applies: time 1-3 day.
The subject of data set [8] is Influenza A virus. Nature of the data set: Antiviral activity against influenza A virus H1NI (A/Weiss/43) virus infected in dog MDCK cells assessed as viral inhibition treated after 4 hrs of viral infection measured at 72 hrs incubation by MTT assay. In kind it is functional.
A short description of data set [9]: Selectivity index, ratio of CC50 for dog MDCK cells to EC50 for antiviral activity against Influenza A virus […] H3N2 (A/California/2014) infected in MDCK cells. It counts as toxicity, cell-based. The note with it: read-out: Selectivity Index.
Data set [10] deals with Influenza A virus. Nature of the data set: Antiviral activity against influenza A virus infected in human A549 cells assessed as inhibition of IL-6 expression by qRT-PCR analysis. It counts as functional, organism-based.
Data set [11] has as its system Influenza A virus. As to the kind of experiment: Inhibition of influenza A virus infection induced apoptosis in MDCK cells infected with influenza virus assessed as necrotic cells at 25 uM incubated for 36 hrs by AnnexinV-FITC/PI staining based flow cytometry (reference value: 1.79%). Also noted: scale not given: the % may be the effect or the level left. In kind it is functional.

For data set [12], the system named is Influenza A virus. Nature of the data set: Inhibition of neuraminidase in Influenza A virus.

This is an account of results in ChEMBL document CHEMBL6087420, “Synthesis and pharmacodynamic evaluation of 2-aminoindole derivatives against influenza A virus in vitro/vivo” (Eur J Med Chem, 2025).

Structures are written as SMILES. Active and inactive are the calls of the source. No cut-off for these calls is given here.

As for `COc1ccc2c(c1)c(-c1ccccc1)c(NS(C)(=O)=O)n2S(=O)(=O)c1ccc(C)cc1`, the outcome with Influenza A virus [1], in the data set on Influenza A virus [2], with Influenza A virus [3], with Influenza A virus [4], with Influenza A virus [5] and with Influenza A virus [6] was Active. The result in the data set with Influenza A virus [7] and with Influenza A virus [10] was Active. Besides, in the data set on Influenza A virus [8], the “inhibition (INH)” value is on record as 85.3%. Also, the selectivity ratio in data set [9] worked out at 36.5. Besides, the Activity with Influenza A virus [11] worked out at 1.23%. Also, in the data set on Influenza A virus [12], the inhibition result was “inactive”.
